In US10266526B2, “Substituted 1,2,3-triazoles as SMYD inhibitors for treating cancer” (EPIZYME, INC., priority 2014, dated 2019):

Molecular target: SMYD3 (Homo sapiens (Human), UniProt Q9H7B4)
Assay: SMYD3 biochemical assay (SMYD3 enzyme assay on MEKK2 protein substrate, 3H-SAM scintillation proximity assay)
Details: read-out: SMYD3 Biochem IC50
Summary of the method: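 Detection used scintillation proximity beads to capture ³H-methylated GST-MEKK2 after quench with 100 uM final cold SAM. The reaction was started by SAM/MEKK2 addition after a 30 min RT compound–enzyme preincubation. Enzyme was tag-free full-length human SMYD3 from E. coli, in buffer of 25 mM Tris-Cl pH 8.0, 1 mM TCEP, 0.005% BSG, 0.005% Tween 20.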

Sequence of SMYD3 (Q9H7B4 whole entry): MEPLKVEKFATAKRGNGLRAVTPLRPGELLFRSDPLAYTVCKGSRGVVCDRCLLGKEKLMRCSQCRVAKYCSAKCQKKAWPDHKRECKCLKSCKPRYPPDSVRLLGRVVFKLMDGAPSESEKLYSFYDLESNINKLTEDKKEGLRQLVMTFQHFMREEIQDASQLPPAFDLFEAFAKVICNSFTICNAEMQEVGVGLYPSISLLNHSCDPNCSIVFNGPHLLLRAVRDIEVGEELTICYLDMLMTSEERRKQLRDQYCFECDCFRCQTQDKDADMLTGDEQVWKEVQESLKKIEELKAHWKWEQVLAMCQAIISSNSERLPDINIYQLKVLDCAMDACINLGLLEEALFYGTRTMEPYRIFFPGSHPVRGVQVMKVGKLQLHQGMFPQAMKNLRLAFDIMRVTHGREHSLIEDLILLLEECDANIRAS

| Compound | IC50 [µM] |
| --- | --- |
| N[C@H]1CC[C@H](NC(=O)C2C[C@@H]3C=C[C@H]2C3)CC1 (stereo partly drawn) [compound 417, (1r,4r)-N-((1r,4R)-4-aminocyclohexyl)bicyclo[2.2.1]hept-5-ene-2-carboxamide] | > 100 |
| CC(NC(=O)c1cccc(N)n1)C1CCN(C(=O)[C@H](C)N)CC1 (stereo partly drawn) [compound 418, N-(1-(1-(L-alanyl)piperidin-4-yl)ethyl)-6-aminopicolinamide] | > 100 |
| CC(NC(=O)c1cncnc1N)C1CCN(C(=O)[C@H](C)N)CC1 (stereo partly drawn) [compound 419, N-(1-(1-(L-alanyl)piperidin-4-yl)ethyl)-4-aminopyrimidine-5-carboxamide] | > 100 |
| NCCC(=O)N[C@H]1CC[C@H](NC(=O)c2cncnc2N)CC1 [compound 420, 4-amino-N-((1r,4r)-4-(3-aminopropanamido)cyclohexyl)pyrimidine-5-carboxamide] | > 100 |
| Nc1ncncc1C(=O)N[C@H]1CC[C@H](N)CC1 [compound 421, 4-amino-N-((1r,4r)-4-aminocyclohexyl)pyrimidine-5-carboxamide] | > 100 |
| NCCC(=O)N[C@H]1CC[C@H](NC(=O)c2cccc(F)n2)CC1 [compound 422, N-((1r,4r)-4-(3-aminopropanamido)cyclohexyl)-6-fluoropicolinamide] | > 100 |
| N[C@H]1CC[C@H](NC(=O)c2ccc(O)cn2)CC1 [compound 423, N-((1r,4r)-4-aminocyclohexyl)-5-hydroxypicolinamide] | > 100 |
| N[C@H]1CC[C@H](NC(=O)C2=NNC(=O)CC2)CC1 [compound 424, N-((1r,4r)-4-aminocyclohexyl)-6-oxo-1,4,5,6-tetrahydropyridazine-3-carboxamide] | > 100 |
| N[C@H]1CC[C@H](NC(=O)Cn2ccnc2)CC1 [compound 426, N-((1r,4r)-4-aminocyclohexyl)-2-(1H-imidazol-1-yl)acetamide] | > 100 |
| NCCC(=O)N[C@H]1CC[C@H](NC(=O)c2nc3ccccc3s2)CC1 [compound 427, N-((1r,4r)-4-(3-aminopropanamido)cyclohexyl)benzo[d]thiazole-2-carboxamide] | > 100 |
| NCCC(=O)N[C@H]1CC[C@H](NC(=O)c2cccc3c2CC(=O)N3)CC1 [compound 430, N-((1r,4r)-4-(3-aminopropanamido)cyclohexyl)-2-oxoindoline-4-carboxamide] | > 100 |
| Cc1nn(C(C)C(=O)N[C@H]2CC[C@H](NC(=O)CCN)CC2)c(C)c1Br (some centres unmarked) [compound 431, 3-amino-N-((1r,4r)-4-(2-(4-bromo-3,5-dimethyl-1H-pyrazol-1-yl)propanamido)cyclohexyl)propanamide] | > 100 |
| NCCC(=O)N[C@H]1CC[C@H](NC(=O)[C@H]2C[C@H](O)CN2)CC1 [compound 434, (2R,4S)-N-((1r,4r)-4-(3-aminopropanamido)cyclohexyl)-4-hydroxypyrrolidine-2-carboxamide] | > 100 |

More lines, now with the values ahead:

| IC50 [µM] | Compound |
| --- | --- |
| > 100 | CC1=NN(c2ccc(C(=O)N[C@H]3CC[C@H](N)CC3)cc2)C(=O)C1 [compound 403, N-((1r,4r)-4-aminocyclohexyl)-4-(3-methyl-5-oxo-4,5-dihydro-1H-pyrazol-1-yl)benzamide] |
| > 100 | NCCC(=O)N[C@H]1CC[C@H](NC(=O)c2cc(O)c3ccccc3n2)CC1 [compound 404, N-((1r,4r)-4-(3-aminopropanamido)cyclohexyl)-4-hydroxyquinoline-2-carboxamide] |
| > 100 | N[C@H]1CC[C@H](NC(=O)c2cnc3ccccc3n2)CC1 [compound 405, N-((1r,4r)-4-aminocyclohexyl)quinoxaline-2-carboxamide] |
| > 100 | CC(NC(=O)Cc1c[nH]c2cccnc12)C1CCN(C(=O)[C@H](C)N)CC1 (stereo partly drawn) [compound 406, N-(1-(1-(L-alanyl)piperidin-4-yl)ethyl)-2-(1H-pyrrolo[3,2-b]pyridin-3-yl)acetamide] |
| > 100 | NCCC(=O)N[C@H]1CC[C@H](NC(=O)Cc2c[nH]c3cccnc23)CC1 [compound 407, N-((1r,4r)-4-(2-(1H-pyrrolo[3,2-b]pyridin-3-yl)acetamido)cyclohexyl)-3-aminopropanamide] |
| > 100 | N[C@H]1CC[C@H](NC(=O)Cc2c[nH]c3cccnc23)CC1 [compound 408, N-((1r,4r)-4-aminocyclohexyl)-2-(1H-pyrrolo[3,2-b]pyridin-3-yl)acetamide] |
| 70.4 | CC(NC(=O)c1cccnc1O)C1CCN(C(=O)[C@H](C)N)CC1 (stereo partly drawn) [compound 409, N-(1-(1-(L-alanyl)piperidin-4-yl)ethyl)-2-hydroxynicotinamide] |
| 44.5 | NCCC(=O)N[C@H]1CC[C@H](NC(=O)c2cccnc2O)CC1 [compound 410, N-((1r,4r)-4-(3-aminopropanamido)cyclohexyl)-2-hydroxynicotinamide] |
| > 100 | N[C@H]1CC[C@H](NC(=O)c2cccnc2O)CC1 [compound 411, N-((1r,4r)-4-aminocyclohexyl)-2-hydroxynicotinamide] |
| > 100 | Cn1ccnc1C(=O)N[C@H]1CC[C@H](NC(=O)CCN)CC1 [compound 412, N-((1r,4r)-4-(3-aminopropanamido)cyclohexyl)-1-methyl-1H-imidazole-2-carboxamide] |
| > 100 | CC(NC(=O)c1ccnn1C)C1CCN(C(=O)[C@H](C)N)CC1 (stereo partly drawn) [compound 413, N-(l-(1-(L-alanyl)piperidin-4-yl)ethyl)-1-methyl-1H-pyrazole-5-carboxamide] |
| > 100 | Cn1nccc1C(=O)N[C@H]1CC[C@H](NC(=O)CCN)CC1 [compound 414, N-((1r,4r)-4-(3-aminopropanamido)cyclohexyl)-1-methyl-1H-pyrazole-5-carboxamide] |
| > 100 | Cn1nccc1C(=O)N[C@H]1CC[C@H](N)CC1 [compound 415, N-((1r,4r)-4-aminocyclohexyl)-1-methyl-1H-pyrazole-5-carboxamide] |
| > 100 | NCCC(=O)N[C@H]1CC[C@H](NC(=O)C2C[C@@H]3C=C[C@H]2C3)CC1 (stereo partly drawn) [compound 416, (1R,4R)-N-((1r,4R)-4-(3-aminopropanamido)cyclohexyl)bicyclo[2.2.1]hept-5-ene-2-carboxamide] |
| 37.5 | NCCC(=O)N[C@H]1CC[C@H](NC(=O)c2n[nH]c3ccccc23)CC1 [compound 425, N-((1r,4r)-4-(3-aminopropanamido)cyclohexyl)-1H-indazole-3-carboxamide] |
| 30.6 | N[C@H]1CC[C@H](C(=O)Nc2ccc3c(c2)CC(=O)N3)CC1 [compound 428, (1r,4r)-4-amino-N-(2-oxoindolin-5-yl)cyclohexane-1-carboxamide] |
| 14.5 | N[C@H]1CC[C@H](NS(=O)(=O)c2ccc3c(c2)CC(=O)N3)CC1 [compound 429, N-((1r,4r)-4-aminocyclohexyl)-2-oxoindoline-5-sulfonamide] |
| 37 | CC1=NN(c2ccc(C(=O)N[C@H]3CC[C@H](NC(=O)CCN)CC3)cc2)C(=O)C1 [compound 432, N-((1r,4r)-4-(3-aminopropanamido)cyclohexyl)-4-(3-methyl-5-oxo-4,5-dihydro-1H-pyrazol-1-yl)benzamide] |
| 45.6 | CC(NC(=O)[C@H]1C[C@H](O)CN1)C1CCN(C(=O)[C@H](C)N)CC1 (stereo partly drawn) [compound 433, (2R,4S)-N-(1-(1-(L-alanyl)piperidin-4-yl)ethyl)-4-hydroxypyrrolidine-2-carboxamide] |
